Experiments:
[1] = system: kidney (cisplatin nephrotoxicity); assay: Cisplatin (CDDP) nephrotoxicity, renal function; assay type: in vivo, rats
Experimental: Male Sprague-Dawley were used to determine the effect of EX-2 on renal function after cisplatin (CDDP) administration. All rats were administered CDDP (4 mg/kg IP) and divided in 3 treatment groups (n=6/group). The groups were as follows: (1) Administration with vehicle and sterile PBS 3×/day; (2) Administration of EX-2 at a dose of 5 μg/kg, 3×/day; and (3) same as group 2 except the dose of EX-2 was 50 μg/kg, 3×/day. An infusion of ^3 H-inulin (0.6 μCi/ml in PBS) (2 ml/hr) was initiated at the end of the surgical preparation period. The continuous infusion was started 60 min prior to the renal function measurements and maintained to the end of the study. Glomerular filtration was assessed by inulin clearance techniques in two 30 min periods and renal blood flow (RBF) and renal plasma flow (RPF) were measured by inulin extraction techniques (arterial vs. renal vein inulin concentration) from left kidney renal vein blood sampled at the end of the second GFR measurement period. Urinary output was also monitored to determine both urine flow and fractional excretion of water. Urinary electrolyte (Na^+ and K^+) concentrations were analyzed by flame photometry (Model 51 Ca, Bacharch, inc.; Pittsburgh, Pa.) and urinary protein concentrations were determined. At the end of the measurement periods, the kidneys were removed for histological analysis.

[2] = system: arachidonic acid-induced ear swelling; assay: Arachidonic acid-induced ear swelling; assay type: in vivo, mice; conditions: 100 μg/mouse IP 30 min prior to AA; 60 min after AA
Experimental: Experiments were performed using female Balb/c mice weighing 18-23 grams. Saline or 100 μg EX-2 or EX-3 was administered IP, 30 min prior to topical application of arachidonic acid (AA). A 10 μl pipet was used to apply 10 μl AA solution (100 mg/ml ethanol; Calbiochem-Novabiochem; San Diego Calif.) to the inner and outer surfaces of the right ear of each mouse. Ten μl ethanol, alone, was applied to the inner and outer surface of the left ear of each mouse. Ear thickness was measured with a hand-held spring loaded caliper immediately before and 60 min after AA application. Increase in ear thickness was calculated by subtracting the change observed in the control ear from the change observed in AA-treated ear. The value for each group (saline and control) is the average of the swelling observed in the individual mice in each group. The percent reduction of swelling is based on the swelling observed in the saline control group.

Interleukin-6 (IL-6) = assay: Reduction of LPS-induced IL-6 levels in mice; assay type: in vivo; conditions: 300 μg/mouse; LPS treated Balb/c mice
Experimental: Balb/c mice were grouped and treated as described in Example III, above. Blood samples were obtained from the orbital sinus at various times up to six hr and serum was collected and diluted as described above. A 100 μl aliquot was assayed for IL-6 levels using an IL-6-specific ELISA by a modification of the method of Starnes etal., J. Immunol. 145:4185-4194 (1990), which is incorporated herein by reference.
The mean (+/- SEM) IL-6 level in six mice from each group was determined and the percent reduction in IL-6 was calculated.

IL-10 = assay: Increasing levels of IL-10 in human plasma; assay type: in vivo; conditions: for increase of plasma IL-10: healthy male volunteers
Experimental: EX-2 was administered by intravenous infusion to eight healthy male volunteers in doses of either 200 or 500 ug/kg. Plasma IL-10 levels increased in two of four volunteers after administration at 200 ug/kg EX-2 (FIG. 3a) and in four of four volunteers after administration of 500 ug/kg EX-2 (FIG. 3b).

[3] = system: LPS-induced PMN infiltration in lungs; assay: Adult respiratory distress syndrome: LPS-induced PMN count in broncho-alveolar lavage; assay type: in vivo, rats; conditions: 100 μg/kg IP; broncho-alveolar lavage 6 hr after intratracheal LPS
Experimental: These experiments were performed using a modification of the methods described by Ulich et al., Am. J. Pathol. 141:61-68 (1992) and by Wheelden et al., Lab. Animals 26:29-37 (1992), each of which is incorporated herein by reference. Male Harlan Sprague-Dawley rats were anesthetized using a mixture of 70 mg/kg ketamine and 6 mg/kg rompun injected IP. A 2-3 cm incision was made in the neck of each anesthetized rat and its trachea was exposed by blunt dissection of the surrounding soft tissue. The rats were suspended on a near vertical slab and intratracheal injections were performed by inserting into the exposed trachea, at a point 1 cm posterior to the larynx, a 25G×1/2 inch needle attached to a 1 cc syringe.
Each rat received 0.5 ml/kg of saline or 0.5 ml/kg of 10 mg/ml (5 mg/kg) LPS endotoxin via slow intratracheal administration. Immediately following administration of the LPS endotoxin, rats were injected IP with 1 ml/kg of either saline (control) or saline containing various concentrations of EX-2 (treated). The rats were maintained in the elevated position for 1-2 min to facilitate distribution of the LPS and saline into the lung. The incisions were closed and the rats were allowed to recover. […]
The total polymorphonuclear leukocytes (PMN; neutrophits) in the broncho-alveolar lavage fluid were counted in the EX-2-treated rats and compared with the number in the control rats.

[4] = system: morphine-induced respiratory depression; assay: Morphine-induced respiratory depression; assay type: in vivo, rabbits; conditions: 10 + 20 + 20 μg/kg/rabbit iv; end of experiment (80 min)
Experimental: Male Shelton rabbits (3-4 kg) were restrained and fitted around the thorax, just behind the front limbs, with a respiration transducer (Model F-RCT; Grass Instruments; Quincy Ma). The transducer was connected to a grass polygraph via an EKG cable. An intravenous line was established for drug administration by cannulating the marginal ear vein using a 25 G butterfly needle.
Rabbit breathing was allowed to stabilize, then morphine sulfate (2 mg/kg in 0.5 ml saline) was administered by intravenous (iv) injection and respiratory rate and depth were monitored for 10 min. A second dose of morphine was administered, then, after 10 min, EX-2 or EX-3 (10 μg/kg in 0.5 ml saline) was administered, iv, and rabbits were monitored for 20 min. Two additional doses of EX-2 or EX-3 (20 μg/kg in 1.0 ml saline) were administered at 20 min intervals, i.e., 40 min and 60 min after the first morphine injection.
Results were calculated as the percent change from baseline values and are expressed as the difference of the mean value of the treated group minus the mean value of the control group at the end of the experiment (80 min).

[5] = CDDP 4 mg/kg IP + 5 μg/kg EX-2 3×/day
[6] = CDDP 4 mg/kg IP + 50 μg/kg EX-2 3×/day

Work on “Ac-Nle-Gln-His-(D)Phe-Arg-(D)Trp-Gly-NH2 [EX-2]” yielded a GFR [1, 5] of 0.8 ± 0.2, an RBF [1, 5] of 12.1 ± 2.0 and an RPF [1, 5] of 6.5 ± 1.0 ml/mm. For the same substance, the GFR [1, 6] was 1.6 ± 0.4, the RBF [1, 6] was 16.8 ± 2.2 and the RPF [1, 6] was 8.8 ± 1.1 ml/mm. For the same substance, the “Reduction in arachidonic acid-induced Ear Swelling” value [2] was 72%, the “Reduction in IL-6 levels” value (Interleukin-6 (IL-6)) was 60% and the “volunteers in whom plasma IL-10 levels increased” value (IL-10; 200 ug/kg intravenous infusion) was “two of four”. For the same substance, the “increase of plasma IL-10” value (IL-10; 200 ug/kg intravenous infusion) was 85%, the “volunteers in whom plasma IL-10 levels increased” value (IL-10; 500 ug/kg intravenous infusion) was “four of four” and the “increase of plasma IL-10” value (IL-10; 500 ug/kg intravenous infusion) was 230%. For the same substance, the “Reduction in LPS-induced PMN Count” value [3] was 58% and the “Reduction in Morphine-induced Respiratory Depression” value [4] was 50%.
